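Test compounds were applied to cells in 96-well plates for 48 hours at 5 doses. GI50 = concentration required for 50% inhibition of growth.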 Calls of active or inactive are those of the source. Cut-off read from the data, not from the text of the source: active = GI50 up to about 1.1 µM and inactive = higher.
How the values were obtained:
Experiment in all cases: NCI tumour cell line growth inhibition, 48 h
NCI-H522 = test system: NCI-H522
OVCAR-5 = test system: OVCAR-5
SK-OV-3 = test system: SK-OV-3
SK-MEL-5 = test system: SK-MEL-5
RPMI-8226 = test system: RPMI-8226
SF-268 = test system: SF-268
NCI-H460 = test system: NCI-H460
COLO 205 = test system: COLO 205
NCI-H23 = test system: NCI-H23
CCRF-CEM = test system: CCRF-CEM
SW-620 = test system: SW-620
HT-29 = test system: HT-29
HCT-116 = test system: HCT-116
DLD-1 = test system: DLD-1
EKVX = test system: EKVX
A549 = test system: A549
K562 = test system: K562
LOX IMVI = test system: LOX IMVI
SNB-19 = test system: SNB-19
MCF7 = test system: MCF7

| Structure (SMILES) | GI50 (NCI-H522) | GI50 (OVCAR-5) | GI50 (SK-OV-3) | GI50 (SK-MEL-5) | GI50 (RPMI-8226) | GI50 (SF-268) | GI50 (NCI-H460) | GI50 (COLO 205) | GI50 (NCI-H23) | GI50 (CCRF-CEM) | GI50 (SW-620) | GI50 (HT-29) | GI50 (HCT-116) | GI50 (DLD-1) | GI50 (EKVX) | GI50 (A549) | GI50 (K562) | GI50 (LOX IMVI) | GI50 (SNB-19) | GI50 (MCF7) |
| --- | --- | --- | --- | --- | --- | --- | --- | --- | --- | --- | --- | --- | --- | --- | --- | --- | --- | --- | --- | --- |
| COc1ccc(OC)c(/C=C/C(=O)C(C)(C)C)c1 | 13.8 µM (inactive) | > 10 µM (inactive) | 37.2 µM (inactive) | 15 µM (inactive) | 13.3 µM (inactive) | > 10 µM (inactive) | 34.8 µM (inactive) | 19 µM (inactive) | 19.6 µM (inactive) | 14.3 µM (inactive) | 14.5 µM (inactive) | 27.4 µM (inactive) | 17.9 µM (inactive) | 19.9 µM (inactive) | 16.4 µM (inactive) | 29.4 µM (inactive) | 20.8 µM (inactive) | 21.1 µM (inactive) | 17.2 µM (inactive) | – |
| COc1ccc(CCN(C)C2CCC(C#N)(c3ccc(OC)c(OC)c3)CC2)cc1OC (stereo not given) | > 10 µM (inactive) | > 100 µM (inactive) | > 100 µM (inactive) | 56.9 µM (inactive) | 54 µM (inactive) | > 100 µM (inactive) | > 100 µM (inactive) | 26.7 µM (inactive) | > 100 µM (inactive) | > 100 µM (inactive) | > 100 µM (inactive) | 34.4 µM (inactive) | 85.3 µM (inactive) | > 100 µM (inactive) | > 100 µM (inactive) | > 100 µM (inactive) | 39.1 µM (inactive) | > 100 µM (inactive) | > 100 µM (inactive) | – |
| C[C@@H]1C[C@]2(C[C@@H](C)[C@H]3C(C[C@@]4(C)CCC[C@@H]5C6=C[C@H](CCC34C)OC6=CC(=O)OC5(C)C)O2)OC1=O (stereo not given in full) | > 51.5 µM (inactive) | > 51.5 µM (inactive) | > 51.5 µM (inactive) | > 51.5 µM (inactive) | > 51.5 µM (inactive) | – | > 51.5 µM (inactive) | > 51.5 µM (inactive) | > 51.5 µM (inactive) | > 51.5 µM (inactive) | > 51.5 µM (inactive) | > 51.5 µM (inactive) | – | > 51.5 µM (inactive) | > 51.5 µM (inactive) | > 51.5 µM (inactive) | > 51.5 µM (inactive) | > 51.5 µM (inactive) | > 51.5 µM (inactive) | > 51.5 µM (inactive) |
| CC(=O)c1ccc(Oc2ccc(/C(C)=N\N=C(N)N)cc2)cc1 | 1.8 µM (inactive) | 4.68 µM (inactive) | 2.83 µM (inactive) | 2.08 µM (inactive) | 2.31 µM (inactive) | 3.59 µM (inactive) | 2.77 µM (inactive) | 1.67 µM (inactive) | 3.75 µM (inactive) | 1.91 µM (inactive) | – | 1.67 µM (inactive) | 3.24 µM (inactive) | 3.56 µM (inactive) | 4.51 µM (inactive) | 4.12 µM (inactive) | – | 3.4 µM (inactive) | 10.7 µM (inactive) | – |
| CCCCCCCCCCCCCCCc1ccc(OCC(O)CO)cc1 (stereo not given) | 18.2 µM (inactive) | > 100 µM (inactive) | 99.3 µM (inactive) | 34 µM (inactive) | 18.9 µM (inactive) | 27.9 µM (inactive) | 24.3 µM (inactive) | 23.6 µM (inactive) | 17.8 µM (inactive) | > 100 µM (inactive) | 22.3 µM (inactive) | 21.7 µM (inactive) | 17.1 µM (inactive) | 44.2 µM (inactive) | 31.9 µM (inactive) | 22.6 µM (inactive) | > 100 µM (inactive) | 18.2 µM (inactive) | 40.1 µM (inactive) | – |
| CCOC(=O)C1=C(C)N(C2OC(COC(C)=O)C(OC(C)=O)C(OC(C)=O)C2OC(C)=O)C(=O)NC1c1ccccc1 (stereo not given) | 20 µM (inactive) | > 100 µM (inactive) | > 100 µM (inactive) | > 100 µM (inactive) | 4.84 µM (inactive) | > 100 µM (inactive) | > 100 µM (inactive) | > 100 µM (inactive) | > 100 µM (inactive) | 44.9 µM (inactive) | > 100 µM (inactive) | > 100 µM (inactive) | > 100 µM (inactive) | > 100 µM (inactive) | > 100 µM (inactive) | > 100 µM (inactive) | > 100 µM (inactive) | > 100 µM (inactive) | > 100 µM (inactive) | – |
| COc1ccccc1/C=C1\Sc2scc(-c3cccc([N+](=O)[O-])c3)[n+]2C1=O | 1.34 µM (inactive) | 15.6 µM (inactive) | 13.2 µM (inactive) | 2.53 µM (inactive) | 3.18 µM (inactive) | 4.78 µM (inactive) | 13.2 µM (inactive) | 2.11 µM (inactive) | 10.4 µM (inactive) | 0.476 µM (active) | 4.32 µM (inactive) | 3.27 µM (inactive) | 4.69 µM (inactive) | – | 11.4 µM (inactive) | 17.1 µM (inactive) | 2.79 µM (inactive) | 1.71 µM (inactive) | 12.1 µM (inactive) | 2 µM (inactive) |

Source: ChEMBL document CHEMBL1201862, “PubChem BioAssay data set” (2004)
